The record followed here is US20040039019A1, “Selected anthranilaminde pyridinamides and their use as pharmaceutical agents” (Schering AG, priority 2002, published 2004).

Molecules are shown by their SMILES. Where only a bound is given, the exact number is not on record here.

One assay addresses VEGFR II (KDR) (Homo sapiens, UniProt P35968). Kind of assay: Inhibition of the KDR kinase activity. Particulars: poly-(Glu4Tyr) substrate, 33P-ATP, 10 minutes at room temperature. It is filed as biochemical. How it is done: Solutions Required for the Tests
Stock solution A: 3 mmol of ATP in water, pH 7.0 (−70° C.)
Stock solution B: g-33P-ATP 1 mCi/100 μl
Stock solution C: poly-(Glu4Tyr) 10 mg/ml in water
Substrate solvent: 10 mmol of DTT, 10 mmol of manganese chloride, 100 mmol of magnesium chloride
Enzyme solution: 120 mmol of tris/HCl, pH 7.5, 10 μM of sodium vanadium oxide
Inhibition of the KDR- and FLT-1 Kinase Activity in the Presence of the Compounds According to the Invention
In a microtiter plate (without protein binding) that tapers to a point, 10 μl of substrate mix (10 μl of volume of ATP stock solution A +25 μCi of g-33P-ATP (about 2.5 μl of stock solution B)+30 μl of poly-(Glu4Tyr) stock solution C+1.21 ml of substrate solvent), 10 μl of inhibitor solution (substances corresponding to the dilutions, 3% DMSO in substrate solvent as a control) and 10 μl of enzyme solution (11.25 μg of enzyme stock solution (KDR or FLT-1 kinase) are added at 4° C. in 1.25 ml of enzyme solution (dilute). It is thoroughly mixed and incubated for 10 minutes at room temperature. Then, 10 μl of stop solution (250 mmol of EDTA, pH 7.0) is added, mixed, and 10 μl of the solution is transferred to a P 81 phosphocellulose filter. Then, it is washed several times in 0.1 M phosphoric acid. The filter paper is dried, coated with Meltilex and measured in a microbeta counter. […]

For assay [1], the target named is T1, human Cytochrome P 450 1A2 (Homo sapiens, UniProt P05177).
T1 construct: host or cells: baculovirus/insect cells
T1 sequence (P05177 1-516): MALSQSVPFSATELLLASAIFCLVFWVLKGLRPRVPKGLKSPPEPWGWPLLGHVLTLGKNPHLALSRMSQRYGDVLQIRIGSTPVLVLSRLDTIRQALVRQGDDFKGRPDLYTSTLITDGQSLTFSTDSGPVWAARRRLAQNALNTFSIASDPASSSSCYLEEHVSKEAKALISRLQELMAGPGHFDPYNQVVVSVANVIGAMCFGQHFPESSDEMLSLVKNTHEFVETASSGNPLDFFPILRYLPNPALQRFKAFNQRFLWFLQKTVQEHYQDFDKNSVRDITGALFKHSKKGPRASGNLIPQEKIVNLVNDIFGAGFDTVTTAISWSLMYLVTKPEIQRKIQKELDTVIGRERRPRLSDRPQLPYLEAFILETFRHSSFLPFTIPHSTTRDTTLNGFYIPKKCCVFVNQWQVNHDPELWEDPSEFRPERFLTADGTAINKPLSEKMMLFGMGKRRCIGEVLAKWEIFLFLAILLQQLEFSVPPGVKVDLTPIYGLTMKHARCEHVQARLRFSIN
Kind of assay: Cytochrome P450 inhibition, isoenzyme 1A2. It is filed as in vitro ADME. Particulars: baculovirus/insect cell-expressed human isoenzyme 1A2; read-out: Inhibition of the Cytochrome P450 Isoenzymes (IC50) 1A2. How it is done: (§1) Cytochrome P450 Inhibition
(§2) The Cytochrome P450 inhibition was performed according to the publication of Crespi et al. (Anal. Biochem., 248, 188-190 (1997)) with use of baculovirus/insect cell-expressed, human Cytochrome P 450 isoenzymes (1A2, 2C9, 2C19, 2D6, 3A4).

Assay [2] concerns the target T2, human Cytochrome P 450 2C9 (Homo sapiens, UniProt P11712).
T2 construct: host or cells: baculovirus/insect cells
Kind of assay: Cytochrome P450 inhibition, isoenzyme 2C9. It is filed as in vitro ADME. To be noted: baculovirus/insect cell-expressed human isoenzyme 2C9; read-out: Inhibition of the Cytochrome P450 Isoenzymes (IC50) 2C9. As for the experimental part:
as §1, §2

For assay [3], the target named is T3, human Cytochrome P 450 2C19 (Homo sapiens, UniProt P33261).
T3 construct: host or cells: baculovirus/insect cells
T3 sequence (P33261 whole entry): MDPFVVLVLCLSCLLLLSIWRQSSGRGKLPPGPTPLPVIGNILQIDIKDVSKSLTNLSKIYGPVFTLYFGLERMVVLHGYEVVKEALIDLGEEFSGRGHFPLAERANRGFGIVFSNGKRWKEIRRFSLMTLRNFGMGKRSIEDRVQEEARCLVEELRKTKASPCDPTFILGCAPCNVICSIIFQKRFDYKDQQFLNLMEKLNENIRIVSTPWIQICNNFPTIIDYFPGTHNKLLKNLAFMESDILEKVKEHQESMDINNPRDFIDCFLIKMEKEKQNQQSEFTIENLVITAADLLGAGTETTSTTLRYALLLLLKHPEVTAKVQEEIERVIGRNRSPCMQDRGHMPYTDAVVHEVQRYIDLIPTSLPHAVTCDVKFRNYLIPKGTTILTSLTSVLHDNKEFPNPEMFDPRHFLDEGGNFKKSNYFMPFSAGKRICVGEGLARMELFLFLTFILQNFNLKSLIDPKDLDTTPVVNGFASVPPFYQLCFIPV
Kind of assay: Cytochrome P450 inhibition, isoenzyme 2C19. It is filed as in vitro ADME. Particulars: baculovirus/insect cell-expressed human isoenzyme 2C19; read-out: Inhibition of the Cytochrome P450 Isoenzymes (IC50) 2C19. How it is done: as §1, §2

In assay [4] the target is T4, human Cytochrome P 450 2D6 (Homo sapiens, UniProt P10635).
T4 construct: host or cells: baculovirus/insect cells
T4 sequence (P10635 whole entry): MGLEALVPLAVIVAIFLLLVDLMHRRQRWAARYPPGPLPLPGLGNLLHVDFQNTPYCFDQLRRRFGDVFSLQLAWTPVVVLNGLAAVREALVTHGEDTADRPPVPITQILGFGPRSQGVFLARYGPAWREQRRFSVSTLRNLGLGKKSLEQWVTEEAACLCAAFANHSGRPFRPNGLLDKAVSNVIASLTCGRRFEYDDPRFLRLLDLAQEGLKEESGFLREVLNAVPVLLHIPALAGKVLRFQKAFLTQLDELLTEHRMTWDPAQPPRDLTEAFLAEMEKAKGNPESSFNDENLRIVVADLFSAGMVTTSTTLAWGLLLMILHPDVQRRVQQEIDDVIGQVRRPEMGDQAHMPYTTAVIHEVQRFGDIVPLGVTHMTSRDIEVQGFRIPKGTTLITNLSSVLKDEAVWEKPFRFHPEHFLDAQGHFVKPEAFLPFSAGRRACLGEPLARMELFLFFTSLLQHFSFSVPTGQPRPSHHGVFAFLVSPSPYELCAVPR
Kind of assay: Cytochrome P450 inhibition, isoenzyme 2D6. It is filed as in vitro ADME. Particulars: baculovirus/insect cell-expressed human isoenzyme 2D6; read-out: Inhibition of the Cytochrome P450 Isoenzymes (IC50) 2D6. As for the experimental part:
as §1, §2

Assay [5] addresses T5, human Cytochrome P 450 3A4 (Homo sapiens, UniProt P08684).
T5 construct: host or cells: baculovirus/insect cells
Kind of assay: Cytochrome P450 inhibition, isoenzyme 3A4. It is filed as in vitro ADME. Particulars: baculovirus/insect cell-expressed human isoenzyme 3A4; read-out: Inhibition of the Cytochrome P450 Isoenzymes (IC50) 3A4. As for the experimental part: as §1, §2

Sequence of VEGFR II (KDR) (P35968 20-1356, species assumed): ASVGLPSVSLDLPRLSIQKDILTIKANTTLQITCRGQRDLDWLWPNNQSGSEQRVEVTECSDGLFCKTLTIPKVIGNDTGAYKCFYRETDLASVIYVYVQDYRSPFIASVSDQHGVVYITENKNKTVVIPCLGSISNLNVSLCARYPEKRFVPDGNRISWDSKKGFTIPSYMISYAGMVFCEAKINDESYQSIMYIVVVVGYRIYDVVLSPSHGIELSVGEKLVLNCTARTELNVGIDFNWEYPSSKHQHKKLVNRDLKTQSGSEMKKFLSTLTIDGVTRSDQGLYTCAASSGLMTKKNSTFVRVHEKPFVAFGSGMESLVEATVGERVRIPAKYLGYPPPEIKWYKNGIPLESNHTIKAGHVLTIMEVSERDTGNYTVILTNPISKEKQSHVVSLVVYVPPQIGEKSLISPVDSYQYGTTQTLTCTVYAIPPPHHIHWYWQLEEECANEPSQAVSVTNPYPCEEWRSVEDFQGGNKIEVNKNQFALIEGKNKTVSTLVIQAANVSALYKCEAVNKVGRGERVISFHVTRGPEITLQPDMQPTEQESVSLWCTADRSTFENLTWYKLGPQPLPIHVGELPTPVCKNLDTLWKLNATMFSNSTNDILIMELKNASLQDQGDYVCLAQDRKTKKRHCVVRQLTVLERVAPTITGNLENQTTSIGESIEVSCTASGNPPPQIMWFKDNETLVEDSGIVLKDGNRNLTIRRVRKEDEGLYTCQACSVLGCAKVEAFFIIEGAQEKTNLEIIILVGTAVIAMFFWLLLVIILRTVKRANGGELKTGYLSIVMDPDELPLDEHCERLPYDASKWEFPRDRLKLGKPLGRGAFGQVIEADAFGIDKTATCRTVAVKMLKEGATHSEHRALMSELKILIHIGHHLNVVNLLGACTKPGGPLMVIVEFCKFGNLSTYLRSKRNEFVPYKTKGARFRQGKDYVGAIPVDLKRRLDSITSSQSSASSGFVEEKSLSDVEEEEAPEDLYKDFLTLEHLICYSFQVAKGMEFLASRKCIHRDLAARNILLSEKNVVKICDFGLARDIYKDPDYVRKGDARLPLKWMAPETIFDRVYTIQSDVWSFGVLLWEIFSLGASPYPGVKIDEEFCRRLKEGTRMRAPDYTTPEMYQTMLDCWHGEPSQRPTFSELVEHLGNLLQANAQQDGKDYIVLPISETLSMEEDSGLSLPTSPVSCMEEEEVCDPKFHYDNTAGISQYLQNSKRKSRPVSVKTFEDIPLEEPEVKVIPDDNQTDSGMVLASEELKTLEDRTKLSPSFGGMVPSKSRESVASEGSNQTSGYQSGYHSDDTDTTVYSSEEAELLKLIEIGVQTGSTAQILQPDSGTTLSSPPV
T2 sequence (P11712 whole entry): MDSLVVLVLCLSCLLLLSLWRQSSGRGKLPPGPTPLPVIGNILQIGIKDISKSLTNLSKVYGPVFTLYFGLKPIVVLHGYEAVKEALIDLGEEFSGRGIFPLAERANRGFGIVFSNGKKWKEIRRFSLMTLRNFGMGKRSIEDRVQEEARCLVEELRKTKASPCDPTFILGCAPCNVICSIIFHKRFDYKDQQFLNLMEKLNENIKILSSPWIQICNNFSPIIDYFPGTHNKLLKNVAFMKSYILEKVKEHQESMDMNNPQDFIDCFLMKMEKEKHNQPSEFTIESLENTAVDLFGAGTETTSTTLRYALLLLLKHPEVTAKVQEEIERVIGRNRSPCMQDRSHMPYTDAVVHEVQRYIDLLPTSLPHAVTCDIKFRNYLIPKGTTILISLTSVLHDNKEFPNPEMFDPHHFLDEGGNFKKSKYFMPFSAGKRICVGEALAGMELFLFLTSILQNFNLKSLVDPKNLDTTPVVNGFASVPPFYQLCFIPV
T5 sequence (P08684 whole entry): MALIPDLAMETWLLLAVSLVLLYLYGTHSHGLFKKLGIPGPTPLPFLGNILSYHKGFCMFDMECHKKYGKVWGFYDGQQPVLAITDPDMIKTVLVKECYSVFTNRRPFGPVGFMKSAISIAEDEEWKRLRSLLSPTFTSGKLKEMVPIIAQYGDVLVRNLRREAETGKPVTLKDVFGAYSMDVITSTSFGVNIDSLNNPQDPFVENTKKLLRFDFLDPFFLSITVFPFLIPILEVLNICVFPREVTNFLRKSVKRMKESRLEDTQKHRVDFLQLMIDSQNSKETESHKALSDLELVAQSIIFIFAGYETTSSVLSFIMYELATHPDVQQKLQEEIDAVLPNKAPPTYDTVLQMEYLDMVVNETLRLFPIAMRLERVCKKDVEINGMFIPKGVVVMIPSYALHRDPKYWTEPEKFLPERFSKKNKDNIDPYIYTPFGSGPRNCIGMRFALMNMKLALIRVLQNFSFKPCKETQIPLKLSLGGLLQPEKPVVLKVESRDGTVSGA

By IC50 is commonly meant the concentration needed to halve the response being measured. Turning to `O=C1Cc2ccc(NC(=O)c3ccccc3NCc3ccc(=O)[nH]c3)cc2N1` [Example 1.0, N-(2-Oxo-2,3-dihydro-1H-indol-6-yl)-2-[(6-oxo-1,6-dihydro-pyridin-3-ylmethyl)-amino]-benzamide], the half-maximal inhibitory concentration (IC50) against VEGFR II (KDR) is 0.05 µM; in assay [1], more than 30 µM; in assay [2] it was 23 µM; in assay [3], more than 30 µM; in assay [4], more than 30 µM; in assay [5], more than 30 µM.
